Source: ChEMBL document CHEMBL1201862, “PubChem BioAssay data set” (2004)
The source made the active and inactive calls.

Tests used:
[1] = biological target: T1, Sentrin-specific protease 7 (Homo sapiens, UniProt Q9BQF6); assay: SENP7 protease inhibitors, SAR follow-up, biochemical, luminescence (AID 504497); assay type: functional
T1 sequence (Q9BQF6 whole entry): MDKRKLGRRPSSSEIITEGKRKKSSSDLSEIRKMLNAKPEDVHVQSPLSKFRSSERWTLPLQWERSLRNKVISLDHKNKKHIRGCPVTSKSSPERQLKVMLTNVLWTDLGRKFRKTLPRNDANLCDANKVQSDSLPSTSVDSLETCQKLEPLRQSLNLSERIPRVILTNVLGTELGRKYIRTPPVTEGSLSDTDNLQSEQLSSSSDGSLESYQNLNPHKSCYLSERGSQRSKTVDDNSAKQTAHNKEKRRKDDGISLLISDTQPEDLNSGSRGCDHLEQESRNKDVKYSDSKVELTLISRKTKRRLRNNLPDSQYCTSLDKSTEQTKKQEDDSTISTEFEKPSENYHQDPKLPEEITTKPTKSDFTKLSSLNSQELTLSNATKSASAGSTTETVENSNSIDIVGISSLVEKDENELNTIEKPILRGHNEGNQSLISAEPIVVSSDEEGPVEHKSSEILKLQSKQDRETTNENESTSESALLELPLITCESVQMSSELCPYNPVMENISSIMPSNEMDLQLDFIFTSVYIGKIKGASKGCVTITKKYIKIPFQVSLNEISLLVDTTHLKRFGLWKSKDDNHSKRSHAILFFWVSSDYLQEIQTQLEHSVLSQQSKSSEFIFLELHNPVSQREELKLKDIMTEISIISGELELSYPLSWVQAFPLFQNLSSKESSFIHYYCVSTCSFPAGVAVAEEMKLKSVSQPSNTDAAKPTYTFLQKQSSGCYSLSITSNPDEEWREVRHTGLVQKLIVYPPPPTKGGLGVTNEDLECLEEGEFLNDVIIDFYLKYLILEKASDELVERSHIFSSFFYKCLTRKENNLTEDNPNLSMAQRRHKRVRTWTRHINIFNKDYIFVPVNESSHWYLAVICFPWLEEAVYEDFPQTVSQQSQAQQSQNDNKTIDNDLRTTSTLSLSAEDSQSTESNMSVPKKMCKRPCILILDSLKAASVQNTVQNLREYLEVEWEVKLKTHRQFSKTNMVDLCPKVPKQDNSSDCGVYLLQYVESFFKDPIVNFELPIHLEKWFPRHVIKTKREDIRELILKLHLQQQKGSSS

[2] = biological target: Luciferin 4-monooxygenase (Photinus pyralis, UniProt P08659); assay: Counter Screen for Luciferase-based Assay Positives. [Related pubchem assays: 620, 618, 411 ]
Luciferin 4-monooxygenase, sequence (P08659 whole entry): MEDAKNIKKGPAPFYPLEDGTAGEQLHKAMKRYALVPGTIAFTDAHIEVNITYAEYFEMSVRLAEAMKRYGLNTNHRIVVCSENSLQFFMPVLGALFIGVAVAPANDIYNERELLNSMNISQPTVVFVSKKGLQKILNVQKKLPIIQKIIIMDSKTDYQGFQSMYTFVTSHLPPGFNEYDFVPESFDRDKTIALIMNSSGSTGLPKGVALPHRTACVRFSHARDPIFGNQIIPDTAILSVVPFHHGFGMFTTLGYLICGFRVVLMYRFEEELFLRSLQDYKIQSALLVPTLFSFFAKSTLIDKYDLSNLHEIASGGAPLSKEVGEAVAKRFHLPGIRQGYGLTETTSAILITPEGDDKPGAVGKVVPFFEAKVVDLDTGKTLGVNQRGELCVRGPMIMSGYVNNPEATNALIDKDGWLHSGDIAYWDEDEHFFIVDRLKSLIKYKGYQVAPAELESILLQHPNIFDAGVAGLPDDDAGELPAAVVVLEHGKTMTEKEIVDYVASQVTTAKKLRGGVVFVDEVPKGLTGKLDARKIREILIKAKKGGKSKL

Jurkat = assay: antigen receptor-induced NF-kB inhibitors, dose response, Jurkat, luciferase reporter, luminescence, B- and T-cell (AID 489004); assay type: functional, cell-based; conditions: Homo sapiens;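 also: NF-kB luciferase reporter Jurkat cells stimulated with PMA plus ionomycin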
Caspase-3 = biological target: T2, Caspase-3 (Homo sapiens, UniProt P42574); assay type: functional;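 also: Dose-response selectivity test against caspase-3 for candidate inhibitors of sentrin-specific proteases (SENPs)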
T2 sequence (P42574 whole entry): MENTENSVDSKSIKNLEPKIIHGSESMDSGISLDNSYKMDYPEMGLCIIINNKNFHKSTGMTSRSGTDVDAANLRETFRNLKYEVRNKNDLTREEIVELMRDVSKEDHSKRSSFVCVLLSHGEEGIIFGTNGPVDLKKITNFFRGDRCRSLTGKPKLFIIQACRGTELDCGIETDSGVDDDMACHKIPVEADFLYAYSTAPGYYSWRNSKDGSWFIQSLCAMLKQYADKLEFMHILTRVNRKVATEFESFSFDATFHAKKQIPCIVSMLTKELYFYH

[3] = cytotoxicity in HEK-293T NF-kB-Luc cells, dose response, cytotoxicity control for B/T-cell NF-kB inhibitor project, cell-based, uHTS hits (AID 489019); assay type: functional;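 also: IC50 reflects cytotoxicity as loss of cell viability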
[4] = biological target: T1, Sentrin-specific protease 7; assay type: functional
[5] = biological target: T3, Microphthalmia-associated transcription factor (Homo sapiens, UniProt O75030); assay: TRPM1 promoter luciferase signal decrease, dose response, MITF inhibitor project, cell-based, SK-MEL-5, cherry-picked, set 3 (AID 493073); assay type: functional
T3 sequence (O75030 whole entry): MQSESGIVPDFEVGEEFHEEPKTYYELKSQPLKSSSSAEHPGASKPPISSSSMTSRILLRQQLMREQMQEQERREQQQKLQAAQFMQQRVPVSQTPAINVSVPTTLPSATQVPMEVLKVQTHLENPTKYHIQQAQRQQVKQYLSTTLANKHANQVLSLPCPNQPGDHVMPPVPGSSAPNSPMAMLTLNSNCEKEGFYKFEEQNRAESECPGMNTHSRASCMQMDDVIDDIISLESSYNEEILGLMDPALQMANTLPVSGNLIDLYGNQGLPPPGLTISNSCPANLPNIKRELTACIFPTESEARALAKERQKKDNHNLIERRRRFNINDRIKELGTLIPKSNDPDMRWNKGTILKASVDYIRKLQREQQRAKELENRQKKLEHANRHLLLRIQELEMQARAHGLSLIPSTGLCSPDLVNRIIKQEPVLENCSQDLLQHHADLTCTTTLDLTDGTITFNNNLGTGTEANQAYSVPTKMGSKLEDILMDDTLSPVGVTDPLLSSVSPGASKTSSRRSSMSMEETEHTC

A-375 = assay: A375 melanoma cell viability reduction, dose response, counter-screen for MITF modulator project, cherry-pick samples, set 2 (AID 540335); assay type: functional, cell-based; conditions: Homo sapiens

Structure (SMILES)	IC50 [1]	EC50 [2]	IC50 (Jurkat)	IC50 (Caspase-3)	IC50 [3]	IC50 [4]	AC50 [5]	AC50 (A-375)
COc1ccc(C(N)c2nccc3cc(OC)c(OC)cc23)cc1OC (stereo not drawn)	> 99 µM (inactive)	–	–	–	–	–	–	–
N#Cc1c(NC(=O)CSc2nc[nH]n2)sc2c1CCCCC2	–	50.9 µM (active)	< 160 nM (active)	45.2 µM (active)	> 80 µM (inactive)	5.65 µM (active)	371 nM (active)	> 35 µM (active)
